# From patent US20250339569A1, “CARBONIC ANHYDRASE IX LIGANDS” (priority 2021, published 2025)
# Read-outs that look alike come from different tables or passages of the source. Starred links: 1 amine or outer side, 2 acyl side, 3 side chain; linkers in the order of their positions; H or OH if unused. Positions of bridges follow the written chain, without caps; N, C: chain ends. Non-standard residues stand in square brackets, D forms with d. Residues, ends and D or L forms follow the SMILES beside them. *: point of attachment. NH(CH2)3NHDOTA = O=C(O)CN1CCN(CC(=O)O)CCN(CC(=O)NCCCN*)CCN(CC(=O)O)CC1; DOTA = O=C(O)CN1CCN(CC(=O)O)CCN(CC(=O)*)CCN(CC(=O)O)CC1; mXylylene = c1cc(C[*:1])cc(C[*:2])c1; dOrn(Me2) = CN(C)CCC[C@@H](N)C(=O)O; Orn(Me2) = CN(C)CCC[C@H](N)C(=O)O; Trx = NC[C@H]1CC[C@H](C(=O)O)CC1; X2 = O=C(CN1CCC(N[*:1])CC1)[*:2]; hSer = N[C@@H](CCO)C(=O)O; Ac5c = NC1(C(=O)O)CCCC1; AEEA = NCCOCCOCC(=O)O
# How the values were obtained:
# [1] = target: T1, human carbonic anhydrase IX (hCAIX-Fc) (Homo sapiens, UniProt Q16790); test: Surface plasmon resonance assay with hCAIX-Fc; assay type: binding; conditions: 25° C.; for t1/2 category (activity): SPR dissociation half-life, hCAIX-Fc; for Kd: SPR, hCAIX-Fc captured, read-out: pKD category (activity) (converted)
# T1 construct: purchased SinoBliological (Sino Biological) 10107-H02H
# Experimental: Surface plasmon resonance (SPR) studies were performed using a Biacore™ T200 SPR system (GE Healthcare Life Sciences). Briefly, polarized light is directed towards a gold-labeled sensor surface, and minimum intensity reflected light is detected. The angle of reflected light changes as molecules bind and dissociate.
# Fc-fusion protein of human carbonic anhydrase IX (hCAIX-Fc, SinoBliological, Cat #10107-H02H) was captured on a Fc-capture chip (Biacore™ CM5 sensor chip coated with ˜300 RU of an Fc-binding peptide). Recombinant carbonic anydrase was diluted in Running Buffer (PBST, 0.1% DMSO) to a final concentration 100 or 200 nM and than flushed over the Fc-capture chip to immobilized ˜1000 RUs.
# Stock solutions of test compounds were prepared by dissolving each compound in DMSO. DMSO stock solution were diluted 1:1000 in Running Buffer without DMSO. Further sequencial dilutions were made with Running Buffer containing 0.1% DMSO. SPR binding analyses were performed in Single Cycle Kinetic (SCK) mode at 25° C. Flow cell coated with the Fc-binding peptide only served as reference flowcell. After each SCK run, carbonic andydrase IX was removed with 10 mM glycine buffer, pH 1.5.
# In between every three SCK measurements, a blank run with Running Buffer instead of test compound was included to correct for baseline drifts (double blanking methods).
# Table 11 describes the protocol steps for Fc-fusion target capturing and assessment of the binding kinetics.
# For each test compound, SPR raw data in the form of resonance units (RU) were plotted as sensorgrams using the Biacore™ T200 control software. The signal from the blank sensorgram was subtracted from that of the test compound sensorgram (blank corrected). The blank corrected sensorgram was corrected for baseline drift by subtracting the sensorgram of a SCK run without the test compound (running buffer only). The association rate (kon), dissociation rate (koff), dissociation constant (KD), and t1/2 were calculated from Blank-normalized SPR data using the 1:1 Langmuir binding model from the Biacore™ T200 evaluation software. Raw data and fit results were imported as text files in IDBS. The pKD value (negative decadic logarithm of dissociation constant) was calculated in the IDBS excel template.
# [2] = target: T2, CAIX-expressing human HT-29 colorectal cancer cells (Homo sapiens, UniProt Q16790); test: FACS binding assay (IC50 determination, competition with tracer 3BP-2776 or 3BP-4149); conditions: 4° C., 1 hour, read-out: pIC50 category (activity) (converted)
# T2 construct: CAIX-expressing human HT-29 colorectal cancer cells; host or cells: HT-29 human colorectal cancer cells
# Summary of the method: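 HT-29 cells in FACS buffer (PBS, 1% FCS) at 500.000 cells/ml were exposed to compounds competing with a labelled tracer, with biotinylated compounds detected by 1 μg/mL APC-streptavidin for 30 min on ice. APC/Cy5 median fluorescence was read by flow cytometry and IC50 derived by 4PL fit.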
# [3] = FACS competition on HT-29 cells, Tracer ID 3BP-2776 (10 nM, biotin-labeled)
# [4] = FACS binding assay, HT-29 cells, competition with tracer 3BP-2776 (10 nM, biotin-labeled)
Compound,t1/2 category (activity) [1],Kd [1],"IC50 [2, 3]","IC50 [2, 4]"
CC(C)[C@H](NC(=O)CN1CCC(NC(=O)CN2CCN(CC(=O)O)CCN(CC(=O)O)CCN(CC(=O)O)CC2)CC1)C(=O)N[C@@H](Cc1ccc(O)cc1)C(=O)N[C@H]1CSCc2cccc(c2)CSC[C@@H](C(N)=O)NC(=O)[C@H](CO)NC(=O)[C@H](Cc2c[nH]c3ccccc23)NC(=O)[C@H]([C@@H](C)O)NC(=O)C2(CCCC2)NC(=O)[C@H](Cc2c[nH]c3ccccc23)NC(=O)[C@H](CC(=O)O)NC(=O)[C@H]2CCCN2C(=O)[C@H](CCC(=O)O)NC1=O [3BP-3587] ({DOTA}-[X2]VYCE[dP]DW[Ac5c]TWSC-NH2; linker 4-13 via mXylylene),C (t1/2 between 2.1 and 5.0 minutes),< 10 nM,< 10 nM,–
CC(C)C[C@@H]1NC(=O)[C@H](Cc2c[nH]c3ccccc23)NC(=O)[C@H](CC(=O)O)NC(=O)[C@H]2CCCN2C(=O)[C@H](CCC(=O)O)NC(=O)[C@@H](NC(=O)CN2CCC(NC(=O)CN3CCN(CC(=O)O)CCN(CC(=O)O)CCN(CC(=O)O)CC3)CC2)CSCc2cccc(c2)CSC[C@@H](C(N)=O)NC(=O)[C@H](CO)NC(=O)[C@H](Cc2c[nH]c3ccccc23)NC(=O)[C@H]([C@@H](C)O)NC1=O [3BP-3858] ({DOTA}-[X2]CE[dP]DWLTWSC-NH2; linker 2-11 via mXylylene),D (t1/2≤2.0 minutes),< 10 nM,< 10 nM,–
CC(C)C[C@@H]1NC(=O)[C@H](Cc2c[nH]c3ccccc23)NC(=O)[C@H](CC(=O)O)NC(=O)[C@H]2CCCN2C(=O)[C@H](CCC(=O)O)NC(=O)[C@@H](NC(=O)[C@H](Cc2ccc(O)cc2)NC(=O)CN2CCC(NC(=O)CN3CCN(CC(=O)O)CCN(CC(=O)O)CCN(CC(=O)O)CC3)CC2)CSCc2cccc(c2)CSC[C@@H](C(N)=O)NC(=O)[C@H](CO)NC(=O)[C@H](Cc2c[nH]c3ccccc23)NC(=O)[C@H]([C@@H](C)O)NC1=O [3BP-3867] ({DOTA}-[X2]YCE[dP]DWLTWSC-NH2; linker 3-12 via mXylylene),C (t1/2 between 2.1 and 5.0 minutes),< 10 nM,< 10 nM,–
CC(C)C[C@@H]1NC(=O)[C@H](Cc2c[nH]c3ccccc23)NC(=O)[C@H](CC(=O)O)NC(=O)[C@H]2CCCN2C(=O)[C@H](CCC(=O)O)NC(=O)[C@@H](NC(=O)[C@H](Cc2ccc(O)cc2)NC(=O)[C@H]2CC[C@H](CNC(=O)CN3CCN(CC(=O)O)CCN(CC(=O)O)CCN(CC(=O)O)CC3)CC2)CSCc2cccc(c2)CSC[C@@H](C(N)=O)NC(=O)[C@H](CO)NC(=O)[C@H](Cc2c[nH]c3ccccc23)NC(=O)[C@H]([C@@H](C)O)NC1=O [3BP-3868] ({DOTA-Trx}-YCE[dP]DWLTWSC-NH2; linker 2-11 via mXylylene),B (t1/2 between 5.1 and 15.0 minutes),< 10 nM,< 10 nM,–
CC(C)C[C@@H]1NC(=O)[C@H](Cc2c[nH]c3ccccc23)NC(=O)[C@H](CC(=O)O)NC(=O)[C@H]2CCCN2C(=O)[C@H](CCC(=O)O)NC(=O)[C@@H](NC(=O)[C@H](Cc2ccc(O)cc2)NC(=O)COCCOCCNC(=O)CN2CCN(CC(=O)O)CCN(CC(=O)O)CCN(CC(=O)O)CC2)CSCc2cccc(c2)CSC[C@@H](C(N)=O)NC(=O)[C@H](CO)NC(=O)[C@H](Cc2c[nH]c3ccccc23)NC(=O)[C@H]([C@@H](C)O)NC1=O [3BP-3869] ({DOTA-AEEA}-YCE[dP]DWLTWSC-NH2; linker 2-11 via mXylylene),C (t1/2 between 2.1 and 5.0 minutes),10 to 79.4 nM,< 10 nM,–
CC(=O)N[C@@H](CO)C(=O)N[C@@H](Cc1ccc(O)cc1)C(=O)N[C@H]1CSCc2cccc(c2)CSC[C@@H](C(N)=O)NC(=O)[C@H](CCC(=O)NCCCNC(=O)CN2CCN(CC(=O)O)CCN(CC(=O)O)CCN(CC(=O)O)CC2)NC(=O)[C@H](Cc2c[nH]c3ccccc23)NC(=O)[C@H]([C@@H](C)O)NC(=O)[C@H](CC(C)C)NC(=O)[C@H](Cc2c[nH]c3ccccc23)NC(=O)[C@H](CC(=O)O)NC(=O)[C@H]2CCCN2C(=O)[C@H](CCC(=O)O)NC1=O [3BP-3873] (Ac-SYCE[dP]DWLTWE(NH(CH2)3NHDOTA)C-NH2; linker 3-12 via mXylylene),B (t1/2 between 5.1 and 15.0 minutes),< 10 nM,< 10 nM,–
CC(C)C[C@@H]1NC(=O)[C@H](Cc2c[nH]c3ccccc23)NC(=O)[C@H](CC(=O)O)NC(=O)[C@H]2CCCN2C(=O)[C@H](CCC(=O)O)NC(=O)[C@@H](NC(=O)[C@H](CCCN(C)C)NC(=O)[C@@H](NC(=O)CN2CCC(NC(=O)CN3CCN(CC(=O)O)CCN(CC(=O)O)CCN(CC(=O)O)CC3)CC2)C(C)C)CSCc2cccc(c2)CSC[C@@H](C(N)=O)NC(=O)[C@H](CO)NC(=O)[C@H](Cc2c[nH]c3ccccc23)NC(=O)[C@H]([C@@H](C)O)NC1=O [3BP-4095] ({DOTA}-[X2]V[Orn(Me2)]CE[dP]DWLTWSC-NH2; linker 4-13 via mXylylene),B (t1/2 between 5.1 and 15.0 minutes),< 10 nM,–,< 10 nM
CC(C)C[C@@H]1NC(=O)[C@H](Cc2c[nH]c3ccccc23)NC(=O)[C@H](CC(=O)O)NC(=O)[C@@H](CCCN(C)C)NC(=O)[C@H](CCC(=O)O)NC(=O)[C@@H](NC(=O)[C@H](Cc2ccc(O)cc2)NC(=O)[C@@H](NC(=O)CN2CCC(NC(=O)CN3CCN(CC(=O)O)CCN(CC(=O)O)CCN(CC(=O)O)CC3)CC2)C(C)C)CSCc2cccc(c2)CSC[C@@H](C(N)=O)NC(=O)[C@H](CO)NC(=O)[C@H](Cc2c[nH]c3ccccc23)NC(=O)[C@H]([C@@H](C)O)NC1=O [3BP-4097] ({DOTA}-[X2]VYCE[dOrn(Me2)]DWLTWSC-NH2; linker 4-13 via mXylylene),–,< 10 nM,–,< 10 nM
CC(C)C[C@@H]1NC(=O)[C@H](Cc2c[nH]c3ccccc23)NC(=O)[C@H](CCO)NC(=O)[C@H]2CCCN2C(=O)[C@H](CCC(=O)O)NC(=O)[C@@H](NC(=O)[C@H](Cc2ccc(O)cc2)NC(=O)[C@@H](NC(=O)CN2CCC(NC(=O)CN3CCN(CC(=O)O)CCN(CC(=O)O)CCN(CC(=O)O)CC3)CC2)C(C)C)CSCc2cccc(c2)CSC[C@@H](C(N)=O)NC(=O)[C@H](CO)NC(=O)[C@H](Cc2c[nH]c3ccccc23)NC(=O)[C@H]([C@@H](C)O)NC1=O [3BP-4102] ({DOTA}-[X2]VYCE[dP][hSer]WLTWSC-NH2; linker 4-13 via mXylylene),A (t1/2>15.0 minutes),< 10 nM,–,< 10 nM
CC(C)C[C@@H]1NC(=O)[C@H](Cc2c[nH]c3ccccc23)NC(=O)[C@H](CC(=O)O)NC(=O)[C@H]2CCCN2C(=O)[C@H](CCC(N)=O)NC(=O)[C@@H](NC(=O)[C@H](Cc2ccc(O)cc2)NC(=O)[C@@H](NC(=O)CN2CCC(NC(=O)CN3CCN(CC(=O)O)CCN(CC(=O)O)CCN(CC(=O)O)CC3)CC2)C(C)C)CSCc2cccc(c2)CSC[C@@H](C(N)=O)NC(=O)[C@H](CO)NC(=O)[C@H](Cc2c[nH]c3ccccc23)NC(=O)[C@H]([C@@H](C)O)NC1=O [3BP-4104] ({DOTA}-[X2]VYCQ[dP]DWLTWSC-NH2; linker 4-13 via mXylylene),B (t1/2 between 5.1 and 15.0 minutes),< 10 nM,–,< 10 nM
CC(C)C[C@@H]1NC(=O)[C@H](Cc2c[nH]c3ccccc23)NC(=O)[C@H](CC(=O)O)NC(=O)[C@H]2CCCN2C(=O)[C@H](CCC(=O)O)NC(=O)[C@@H](NC(=O)[C@H](CO)NC(=O)[C@@H](NC(=O)CN2CCC(NC(=O)CN3CCN(CC(=O)O)CCN(CC(=O)O)CCN(CC(=O)O)CC3)CC2)C(C)C)CSCc2cccc(c2)CSC[C@@H](C(N)=O)NC(=O)[C@H](CO)NC(=O)[C@H](Cc2c[nH]c3ccccc23)NC(=O)[C@H]([C@@H](C)O)NC1=O [3BP-4105] ({DOTA}-[X2]VSCE[dP]DWLTWSC-NH2; linker 4-13 via mXylylene),B (t1/2 between 5.1 and 15.0 minutes),< 10 nM,–,< 10 nM
